Test results published in patent US20050004126A1 (priority 2001, published 2005).

Target: MMP-13CD (catalytic domain of collagenase 3) (Homo sapiens, UniProt P45452)
Assay: Thiopeptolide hydrolysis assay, MMP-13;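 note: inhibition of enzymatic thiopeptolide substrate cleavage (100 µM) in pH 6.0 MES buffer with CaCl2 and DTNB, comparing hydrolysis with versus without inhibitor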
Settings: MMP13 IC50 μM, Table IVb

| IC50 | SMILES |
| --- | --- |
| 0.1 µM | CCn1c(=O)n(Cc2cccc(F)c2)c(=O)c2cc(C(=O)NCc3ccncc3)ccc21 |
| 0.36 µM | CCn1c(=O)n(Cc2cccc(F)c2)c(=O)c2cc(C(=O)NCc3cccnc3)ccc21 |
| 0.59 µM | COc1ccc(CNC(=O)c2ccc3c(c2)c(=O)n(CCCc2ccccc2)c(=O)n3C)cc1 |
| 0.008 µM | COc1ccc(CNC(=O)c2ccc3c(c2)c(=O)n(Cc2ccc(S(N)(=O)=O)cc2)c(=O)n3C)cc1 |
| 0.095 µM | COc1ccc(CNC(=O)c2ccc3c(c2)c(=O)n(C/C=C/c2cccnc2)c(=O)n3C)cc1 |
| 0.035 µM | COc1ccc(CNC(=O)c2ccc3c(c2)c(=O)n(C/C=C/c2ccncc2)c(=O)n3C)cc1 |
| 5.4 µM | COc1ccc(CNC(=O)c2ccc3c(c2)c(=O)n(CC2CCCN(C)C2)c(=O)n3C)cc1 (stereo not shown) |
| 9.3 µM | COc1ccc(CNC(=O)c2ccc3c(c2)c(=O)n(CCN2CCOCC2)c(=O)n3C)cc1 |
| 0.0044 µM | CNS(=O)(=O)c1ccc(Cn2c(=O)c3cc(C(=O)NCc4ccc(OC)cc4)ccc3n(C)c2=O)cc1 |
| 0.014 µM | COc1ccc(CNC(=O)c2ccc3c(c2)c(=O)n(Cc2ccc([N+](=O)[O-])cc2)c(=O)n3C)cc1 |
| 0.0033 µM | COc1ccc(CNC(=O)c2ccc3c(c2)c(=O)n(Cc2ccc(C4(C(=O)O)CC4)cc2)c(=O)n3C)cc1 |
| 0.042 µM | COc1ccc(CNC(=O)c2ccc3c(c2)c(=O)n(CC2CCCCC2)c(=O)n3C)cc1 |
| 0.95 µM | COc1ccc(CNC(=O)c2ccc3c(c2)c(=O)n(CC2CC2)c(=O)n3C)cc1 |
| 6.35 µM | COc1ccc(CNC(=O)c2ccc3c(c2)c(=O)n(CCO)c(=O)n3C)cc1 |
| 1.35 µM | COCCn1c(=O)c2cc(C(=O)NCc3ccc(OC)cc3)ccc2n(C)c1=O |
| 3.64 µM | CCN(CC)c1ccc(C(=O)Cn2c(=O)c3cc(C(=O)NCc4ccc(OC)cc4)ccc3n(C)c2=O)cc1 |
| 0.012 µM | COc1ccc(CNC(=O)c2ccc3c(c2)c(=O)n(Cc2ccc(F)c(Cl)c2)c(=O)n3C)cc1 |
| 0.027 µM | COc1ccc(CNC(=O)c2ccc3c(c2)c(=O)n(Cc2cccc(C#N)c2)c(=O)n3C)cc1 |
| 0.0058 µM | COc1cc(CNC(=O)c2ccc3c(c2)c(=O)n(Cc2cccc(F)c2)c(=O)n3C)ccn1 |
| 0.067 µM | Cn1c(=O)n(Cc2cccc(F)c2)c(=O)c2cc(C(=O)NCc3cccnc3)ccc21 |
| 0.0079 µM | COc1ccc(CNC(=O)c2ccc3c(c2)c(=O)n(Cc2cccc(F)c2)c(=O)n3C)cc1 |
| 0.021 µM | COc1cccc(CNC(=O)c2ccc3c(c2)c(=O)n(Cc2cccc(F)c2)c(=O)n3C)c1 |

| IC50 | SMILES |
| --- | --- |
| 0.023 µM | COc1ccc(CNC(=O)c2ccc3c(c2)c(=O)n(Cc2cccc(OC)c2)c(=O)n3C)cc1 |
| 0.026 µM | Cn1c(=O)n(Cc2ccc(F)c(Cl)c2)c(=O)c2cc(C(=O)NCc3ccncc3)ccc21 |
| 0.067 µM | Cn1c(=O)n(Cc2ccc(F)c(F)c2)c(=O)c2cc(C(=O)NCc3cccnc3)ccc21 |
| 0.032 µM | Cn1c(=O)n(Cc2ccc(F)c(F)c2)c(=O)c2cc(C(=O)NCc3ccncc3)ccc21 |
| 0.0098 µM | COc1ccc(CNC(=O)c2ccc3c(c2)c(=O)n(Cc2ccc(F)c(F)c2)c(=O)n3C)cc1 |
| 0.0093 µM | COc1ccc(CNC(=O)c2ccc3c(c2)c(=O)n(Cc2ccc(N)cc2)c(=O)n3C)cc1 |
| 0.013 µM | COc1ccc(CNC(=O)c2ccc3c(c2)c(=O)n(Cc2ccc(Br)cc2)c(=O)n3C)cc1 |
| 0.0076 µM | COc1cc(CNC(=O)c2ccc3c(c2)c(=O)n(Cc2ccc(Br)cc2)c(=O)n3C)ccn1 |
| 0.0043 µM | COc1cccc(CNC(=O)c2ccc3c(c2)c(=O)n(Cc2ccc(Cl)cc2)c(=O)n3C)c1 |
| 0.011 µM | COc1cc(CNC(=O)c2ccc3c(c2)c(=O)n(Cc2ccc(Cl)cc2)c(=O)n3C)ccn1 |
| 0.093 µM | Cn1c(=O)n(Cc2ccc(Cl)cc2)c(=O)c2cc(C(=O)NCc3cccnc3)ccc21 |
| 0.053 µM | Cn1c(=O)n(Cc2ccc(Cl)cc2)c(=O)c2cc(C(=O)NCc3ccncc3)ccc21 |
| 0.008 µM | COc1ccc(CNC(=O)c2ccc3c(c2)c(=O)n(Cc2ccc(C#N)cc2)c(=O)n3C)cc1 |
| 0.012 µM | COc1ccc(CNC(=O)c2ccc3c(c2)c(=O)n(Cc2ccc(C(=O)N(C)C)cc2)c(=O)n3C)cc1 |
| 0.008 µM | COc1ccc(CNC(=O)c2ccc3c(c2)c(=O)n(Cc2ccc(CC(=O)N(C)C)cc2)c(=O)n3C)cc1 |
| 0.007 µM | COc1ccc(CNC(=O)c2ccc3c(c2)c(=O)n(Cc2ccc(S(=O)(=O)N(C)C)cc2)c(=O)n3C)cc1 |
| 0.071 µM | Cn1c(=O)n(Cc2ccc(F)cc2)c(=O)c2cc(C(=O)NCc3ccncc3)ccc21 |
| 0.011 µM | COc1cc(CNC(=O)c2ccc3c(c2)c(=O)n(Cc2ccc(F)cc2)c(=O)n3C)ccn1 |
| 0.0046 µM | COc1cccc(CNC(=O)c2ccc3c(c2)c(=O)n(Cc2ccc(F)cc2)c(=O)n3C)c1 |
| 0.12 µM | Cn1c(=O)n(Cc2ccc(F)cc2)c(=O)c2cc(C(=O)NCc3cccnc3)ccc21 |
| 0.0145 µM | COc1ccc(CNC(=O)c2ccc3c(c2)c(=O)n(Cc2ccc(F)cc2)c(=O)n3C)cc1 |
| 0.0125 µM | COc1ccc(CNC(=O)c2ccc3c(c2)c(=O)n(Cc2ccc(S(C)(=O)=O)cc2)c(=O)n3C)cc1 |

| IC50 | SMILES |
| --- | --- |
| 0.055 µM | COc1ccc(CNC(=O)c2ccc3c(c2)c(=O)n(Cc2ccc(S(=O)(=O)NCCN(C)C)cc2)c(=O)n3C)cc1 |
| 0.018 µM | COc1ccc(CNC(=O)c2ccc3c(c2)c(=O)n(Cc2cccc(C(=O)O)c2)c(=O)n3C)cc1 |
| 0.002 µM | Cn1c(=O)n(Cc2ccc(C(=O)O)cc2)c(=O)c2cc(C(=O)NCc3ccc(O)cc3)ccc21 |
| 1.4 µM | COc1ccc(CNC(=O)c2ccc3c(c2)c(=O)n(CC=CC(=O)O)c(=O)n3C)cc1 |
| 1.15 µM | COc1ccc(CNC(=O)c2ccc3c(c2)c(=O)n(CCCC(=O)O)c(=O)n3C)cc1 |
| 0.039 µM | COc1ccc(CNC(=O)c2ccc3c(c2)c(=O)n(Cc2ccc(C(=O)OCOC(=O)C(NC(=O)C(N)C(C)C)C(C)C)cc2)c(=O)n3C)cc1 (stereo not shown) |
| 0.037 µM | COc1ccc(CNC(=O)c2ccc3c(c2)c(=O)n(Cc2ccc(C(=O)OCCN(C)C)cc2)c(=O)n3C)cc1 |
| 0.088 µM | COc1ccc(CNC(=O)c2ccc3c(c2)c(=O)n(Cc2ccc(C(=O)OCC(=O)OC(C)(C)C)cc2)c(=O)n3C)cc1 |
| 0.0084 µM | COc1ccc(CNC(=O)c2ccc3c(c2)c(=O)n(Cc2ccc(C(=O)O)s2)c(=O)n3C)cc1 |
| 0.057 µM | COc1ccc(CNC(=O)c2ccc3c(c2)c(=O)n(Cc2ccc(C(=O)O)o2)c(=O)n3C)cc1 |
| 2.55 µM | CCOC(=O)CCCn1c(=O)c2cc(C(=O)NCc3ccc(OC)cc3)ccc2n(C)c1=O |
| 0.65 µM | CCOC(=O)Cn1c(=O)c2cc(C(=O)NCc3ccc(OC)cc3)ccc2n(C)c1=O |
| 0.12 µM | COC(=O)c1cccc(Cn2c(=O)c3cc(C(=O)NCc4ccc(OC)cc4)ccc3n(C)c2=O)c1 |
| 2.1 µM | COC(=O)CCn1c(=O)c2cc(C(=O)NCc3ccc(OC)cc3)ccc2n(C)c1=O |
| 0.29 µM | COC(=O)c1ccc(Cn2c(=O)c3cc(C(=O)NCc4ccc(OC)cc4)ccc3n(C)c2=O)o1 |
| 0.021 µM | COC(=O)c1ccc(Cn2c(=O)c3cc(C(=O)NCc4ccc(OC)cc4)ccc3n(C)c2=O)s1 |
| 0.0034 µM | COC(=O)Cc1ccc(Cn2c(=O)c3cc(C(=O)NCc4ccc(OC)cc4)ccc3n(C)c2=O)cc1 |
| 0.0022 µM | COc1ccc(CNC(=O)c2ccc3c(c2)c(=O)n(Cc2ccc(CC(=O)O)cc2)c(=O)n3C)cc1 |
| 0.315 µM | COC(=O)/C=C/Cn1c(=O)c2cc(C(=O)NCc3ccc(OC)cc3)ccc2n(C)c1=O |
| 0.0665 µM | COc1ccc(CNC(=O)c2ccc3c(c2)c(=O)n(Cc2ccc(C4(C(=O)OC(C)(C)C)CC4)cc2)c(=O)n3C)cc1 |
